Publication PMC8325119, “A Novel Class of Functionalized Synthetic Fluoroquinolones with Dual Antiproliferative - Antimicrobial Capacities” (Asian Pacific Journal of Cancer Prevention : APJCP, 2021)
In brackets after ≈: the same amount, converted by molar mass. Several values for one entry are separate records, joined by “and”; a condition that tells them apart may be missing. Identical values can stand only once. Like-named read-outs stand apart in the source and are kept apart here.

Assays:
A549 cell line = assay: SRB cytotoxicity assay, A549 lung cancer cell line; conditions: Homo sapiens, A549, 72 h, read-out: Cytotoxicity IC50 value, A549 cell line
Experimental: (§1) All reagents and chemicals of analytical grade were obtained from Sigma (Dorset, UK); unless stated otherwise. All chemicals, reagents and solvents (of analytical grade) were used directly without further purification. MCF7 cell line ATCC® HTB-22™, T47D cell line ATCC® HTB-133™, K562 cell line ATCC® CCL-243™, Panc1 cell line ATCC® CRL-1469™. A375.S2 cell line ATCC® CRL-1872™, A549 cell line ATCC® CCL-185™, HELA cell line ATCC® CCL-2™ were cultured in Dulbecco’s modified eagle’s medium (DMEM). (DMEM) containing foetal bovine serum (FBS) (Bio Whittaker, Verviers, Belgium), 4-(2-hydroxyethyl)-1-piperazine ethane sulfonic acid (HEPES) Buffer, L-glutamine, gentamicin, penicillin, and streptomycin sulphate (Sigma, St. Luis, MO, USA), trypsin, trypan blue, Ciprofloxacin HCl from Aarti drugs Ltd/India, was a kind gift from Pharma International Company- Amman; Fluconazole from Neopharma, United Arab Emirates, a kind gift from Pharmaceutical Research Unit, Amman; Trypon soya agar (TSA), trypon soya broth (TSB), sabouraud dextrose agar (SDA) were obtained from Liofilchem (Italy) or Oxoid LTD (Basingstoke, England), they were reconstituted and sterilized by autoclave at 121 °C for 15 min.
(§2) The cytotoxicity measurements were determined using Sulforhodamine B (SRB) colorimetric assay for cytotoxicity screening. The mechanism of reduction of cell viability was adopted as described previously (Arabiyat et al., 2016a,b; 2017; Alabsi et al., 2018; Jumah, 2018; AlShahrabi et al., 2020). Human periodontal ligament fibroblasts (PDL) are a primary normal cell culture for verification of selective cytotoxicity. […] Selectivity ratio as indicative factor of the safety of compounds was calculated by dividing IC50 of tested compound on normal fibroblasts by IC50 of the same compound on specific pathological cell line (Hoffman et al., 2011).

A375.S2 cell line = assay: SRB cytotoxicity assay, A375.S2 melanoma cell line; conditions: Homo sapiens, A375-S2, 72 h, read-out: Cytotoxicity IC50 value, A375.S2 cell line
Experimental: as §1, §2

MCF7 cell line = assay: SRB cytotoxicity assay, MCF7 breast cancer cell line; conditions: Homo sapiens, MCF7, 72 h, read-out: Cytotoxicity IC50 value, MCF7 cell line
Experimental: as §1, §2

HELA cell line = assay: SRB cytotoxicity assay, HELA cervical cancer cell line; conditions: Homo sapiens, HeLa, 72 h
Experimental: as §1, §2

K562 cell line = assay: SRB cytotoxicity assay, K562 leukaemia cell line; conditions: Homo sapiens, K562, 72 h
Experimental: as §1, §2

PANC 1 cell line = assay: SRB cytotoxicity assay, PANC 1 pancreatic cancer cell line; conditions: Homo sapiens, PANC-1, 72 h, read-out: Cytotoxicity IC50 value, PANC 1 cell line
Experimental: as §1, §2

T47D cell line = assay: cells; conditions: Homo sapiens, T47D, 72 h, read-out: Cytotoxicity IC50 value, T47D cell line
Experimental: as §1, §2

[1] = tested on: Staphylococcus aureus (S. aureus) ATCC 6538; assay: Quantitative antimicrobial assessment (MIC) against S. aureus; assay type: cell-based; conditions: for Antibacterial activity (in words): esters vs free acid, Gram positive strain context; for MIC: Staphylococcus aureus, ATCC6538, Gram positive, ATCC 6538; for MIC potency compared with ciprofloxacin, S. aureus: in words
PDL Fibroblasts = assay: SRB cytotoxicity on normal periodontal ligament fibroblasts, selective cytotoxicity; assay type: cell-based, Human; conditions: for IC50: Homo sapiens, Fibroblast, normal fibroblasts, SRB, 72 h, mean ± SD; for Selectivity index SI (A375.S2): IC50 on PDL fibroblasts divided by IC50 on A375.S2; for Selectivity index SI (K562): IC50 on PDL fibroblasts divided by IC50 on K562
Experimental: as §2

[2] = read-out: Cytotoxicity IC50 value, HELA cell line, SRB, 72 h, 0.1-200 μg/mL range, mean ± SD, value in brackets
[3] = read-out: Cytotoxicity IC50 value, HELA cell line, SRB, 72 h, 0.1-200 μg/mL range, mean ± SD, NI = lack of cytotoxicity in range
[4] = read-out: Cytotoxicity IC50 value, K562 cell line, SRB, 72 h, 0.1-200 μg/mL range, mean ± SD, NI = lack of cytotoxicity in range
[5] = read-out: Cytotoxicity IC50 value, K562 cell line, SRB, 72 h, 0.1-200 μg/mL range, mean ± SD, value in brackets
[6] = 0.1-200 μg/mL range, NI = lack of cytotoxicity in range

| Compound | IC50 (A549 cell line) | IC50 (A375.S2 cell line) | IC50 (MCF7 cell line) | IC50 (HELA cell line; [2]) | IC50 (HELA cell line; [3]) | IC50 (K562 cell line; [4]) | IC50 (PANC 1 cell line) | IC50 (T47D cell line) | Antibacterial activity (in words) [1] | IC50 (K562 cell line; [5]) | IC50 (PDL Fibroblasts; [6]) | IC50 (PDL Fibroblasts; value in brackets) | Selectivity index SI (A375.S2) (PDL Fibroblasts) | Selectivity index SI (K562) (PDL Fibroblasts) | MIC [1] | MIC potency compared with ciprofloxacin, S. aureus [1] | Selectivity index SI (PANC 1) (PDL Fibroblasts; IC50 on PDL fibroblasts divided by IC50 on PANC 1) |
| --- | --- | --- | --- | --- | --- | --- | --- | --- | --- | --- | --- | --- | --- | --- | --- | --- | --- |
| O=C(O)c1cn(C2CC2)c2c([N+](=O)[O-])c(Cl)c(F)cc2c1=O [1A] | 57.9 µM and 20.4 µg/mL | 10 µM and 3.52 µg/mL | 3.32 µM and 1.17 µg/mL | 7.02 µg/mL | 19.8 ± 1.48 µM | > 200 µg/mL | 59.1 µM and 21 µg/mL | > 200 µg/mL | incomparably appreciable activity | – | – | – | – | – | – | – | – |
| CCOC(=O)c1cn(C2CC2)c2c([N+](=O)[O-])c(Nc3ccccc3OC)c(F)cc2c1=O [2A] | – | – | – | – | – | – | – | – | lacked antibacterial activity | – | – | – | – | – | – | – | – |
| CCOC(=O)c1cn(C2CC2)c2c([N+](=O)[O-])c(Nc3ccc(F)cc3)c(F)cc2c1=O [2H] | 447 µM and 200 µg/mL | 271 µM and 121 µg/mL | > 200 µg/mL | 647 µg/mL | 1510 ± 68.2 µM | 806 ± 59.2 µM | 485 µM and 208 µg/mL | 833 µM and 344 µg/mL | lacked antibacterial activity | 346 µg/mL | 560 ± 87.5 µM | 231 µg/mL | 2.07 | – | – | – | – |
| COc1cccc(Nc2c(F)cc3c(=O)c(C(=O)O)cn(C4CC4)c3c2N)c1 [4b, 8-amino-1-cyclopropyl-6-fluoro-7-(3-methoxy-phenylamino)-4-oxo-1,4-dihydro-quinoline-3-carboxylic acid] | 229 µM and 87.6 µg/mL | 120 µM and 46 µg/mL | 177 µM and 67.7 µg/mL | – | – | 17 ± 2.57 µM | 155 µM and 59.2 µg/mL | 149 µM and 57.2 µg/mL | – | 6.5 µg/mL | 276 ± 20.2 µM | 106 µg/mL | – | 16.25 | 0.024 µM (≈ 9.2 ng/mL) | – | – |
| COc1ccc(Nc2c(F)cc3c(=O)c(C(=O)O)cn(C4CC4)c3c2N)c(OC)c1 [4g, 8-amino-1-cyclopropyl-7-(2,4-dimethoxy-phenylamino)-6-fluoro-4-oxo-1,4-dihydro-quinoline-3-carboxylic acid] | 709 µM and 306 µg/mL | 807 µM and 348 µg/mL | 317 µM and 137 µg/mL | 120 µg/mL | 277 ± 39 µM | > 200 µg/mL | 310 µM and 128 µg/mL | 1.01 mM and 435 µg/mL | – | – | > 200 µg/mL | – | – | – | 0.004 µM (≈ 1.65 ng/mL) | significantly more potent than ciprofloxacin | – |
| COc1ccccc1-n1nnc2c3c(cc(F)c21)c(=O)c(C(=O)O)cn3C1CC1 [5a, 9-cyclopropyl-4-fluoro-3-(2-methoxy-phenyl)-6-oxo-6,9-dihydro-3H-[1,2, and 3] triazolo [4,5-h] quinoline-7-carboxylic acid] | > 200 µg/mL | 171 µM and 67.2 µg/mL | 44.3 µM and 17.4 µg/mL | 124 µg/mL | 299 ± 11.4 µM | 41.7 ± 6.86 µM | 201 µM and 78.9 µg/mL | 42.1 µM and 16.6 µg/mL | – | 16.4 µg/mL | 279 ± 27.4 µM | 110 µg/mL | – | 6.71 | – | significantly more potent than ciprofloxacin | – |
| CCc1ccc(-n2nnc3c4c(cc(F)c32)c(=O)c(C(=O)O)cn4C2CC2)cc1 [5d, 9-cyclopropyl-4-fluoro-3-(4-ethyl-phenyl)-6-oxo-6,9-dihydro-3H-[1,2,3] triazolo[4,5-h]quinoline-7-carboxylic acid] | 161 µM and 63 µg/mL | 124 µM and 48.5 µg/mL | 177 µM and 69.1 µg/mL | 447 µg/mL | 1140 ± 82.4 µM | 163 ± 22.6 µM | 163 µM and 63.8 µg/mL | 372 µM and 146 µg/mL | – | 63.8 µg/mL | 165 ± 16.1 µM | 64.5 µg/mL | 1.33 | – | – | significantly more potent than ciprofloxacin | – |
| CCn1cc(C(=O)O)c(=O)c2cc(F)c(Nc3ccccc3OC)c([N+](=O)[O-])c21 [11a, 1-ethyl-6-fluoro-7-(2-methoxy-phenylamino)-8-nitro-4-oxo-1,4-dihydro-quinoline-3 carboxylic acid] | 96.8 µM and 8.84 µg/mL | 1.02 mM and 411 µg/mL | 67.8 µM and 27.2 µg/mL | 41.4 µg/mL | 103 ± 7.66 µM | 15.9 ± 1.75 µM | 187 µM and 75.2 µg/mL | 22.8 µM and 9.16 µg/mL | – | 6.38 µg/mL | 156 ± 11.7 µM | 62.7 µg/mL | – | 9.83 | – | – | – |
| CCn1cc(C(=O)O)c(=O)c2cc(F)c(Nc3cccc(OC)c3)c([N+](=O)[O-])c21 [11b, 1-ethyl-6-fluoro-7-(3-methoxy-phenylamino)-8-nitro-4-oxo-1,4-dihydro-quinoline-3-carboxylic acid] | > 200 µg/mL | > 200 µg/mL | > 200 µg/mL | 79 µg/mL | 197 ± 38.3 µM | 58 ± 9.12 µM | > 200 µg/mL | > 200 µg/mL | – | 23.3 µg/mL | > 200 µg/mL | – | – | – | – | – | – |
| CCn1cc(C(=O)O)c(=O)c2cc(F)c(Nc3ccc(OC)cc3OC)c([N+](=O)[O-])c21 [11c, 7-(2,4-dimethoxy-phenylamino)-1-ethyl-6-fluoro-8-nitro-4-oxo-1,4-dihydro-quinoline-3-carboxylic acid] | > 200 µg/mL | > 200 µg/mL | > 200 µg/mL | – | > 200 µg/mL | > 200 µg/mL | 124 µM and 53.3 µg/mL | 431 µM and 186 µg/mL | – | – | 285 ± 28.7 µM | 123 µg/mL | – | – | – | – | 2.31 |
| CCn1cc(C(=O)O)c(=O)c2cc(F)c(Nc3ccccc3OC)c(N)c21 [12a, 8-amino-1-ethyl-6-fluoro-7-(2-methoxy-phenylamino)-4-oxo-1,4-dihydro-quinoline-3-carboxylic acid] | > 200 µg/mL | 373 µM and 138 µg/mL | 125 µM and 46.5 µg/mL | 9.45 µg/mL | 25.4 ± 3.92 µM | 21 ± 0.62 µM | 142 µM and 52.6 µg/mL | 83.5 µM and 31 µg/mL | – | 7.79 µg/mL | 170 ± 15.1 µM | 63.2 µg/mL | – | 8.10 | – | – | – |
| CCn1cc(C(=O)O)c(=O)c2cc(F)c(Nc3cccc(OC)c3)c(N)c21 [12b, 8-amino-1-ethyl-6-fluoro-7-(3-methoxy-phenylamino)-4-oxo-1,4-dihydro-quinoline-3-carboxylic acid] | 163 µM and 60.4 µg/mL | 112 µM and 41.7 µg/mL | 492 µM and 183 µg/mL | 83.6 µg/mL | 225 ± 34 µM | 35.4 ± 3.8 µM | 35.4 µM and 13.2 µg/mL | 169 µM and 62.7 µg/mL | – | 13.2 µg/mL | 150 ± 6.73 µM | 55.5 µg/mL | – | 4.22 | – | – | – |
| O=C(O)c1cn(C2CC2)c2cc(N3CCNCC3)c(F)cc2c1=O [ciprofloxacin, reference compound] | – | – | – | – | – | – | – | – | – | – | – | – | – | – | 1.12 µM (≈ 371 ng/mL) | – | – |
